We go through 7 compounds from ChEMBL document CHEMBL4251548, “Efficient click chemistry towards fatty acids containing 1,2,3-triazole: Design and synthesis as potential antifungal drugs for Candida albicans” (2017).

Active and inactive are the calls of the source. The calls are words filed in the database; no cut-off is given here. Where only a bound is given, the exact number is not on record here.

The subject of assay [1] is Candida albicans. Nature of the assay: Inhibition of germ tube formation in Candida albicans SC5314 assessed as yeast to hyphal conversion at 30 to 300 uM after 2 hrs by differential interference contrast microscopic analysis relative to control. It counts as functional. Details: scale not given: the % may be the effect or the level left.
The test system of assay [2] is Candida albicans. Nature of the assay: Inhibition of hypal growth in Candida albicans SC5314 assessed as length of germ tube at 200 uM after 9 hrs by differential interference contrast microscopic analysis (reference value: 223.9 +/- 24.5 micrometer). It counts as functional.
The subject of assay [3] is Candida albicans. Nature of the assay: Antifungal activity against Candida albicans SC5314 assessed as inhibition of yeast growth at >120 uM after 24 hrs by CLSI broth microdilution method. It counts as functional, organism-based. (In broth dilution the organism is exposed to a series of concentrations in liquid medium.)
Assay [4] has as its system Candida albicans. Nature of the assay: Inhibition of hypal growth in Candida albicans SC5314 assessed as length of germ tube at 200 uM after 3 hrs by differential interference contrast microscopic analysis (reference value: 149.9 +/- 22.3 micrometer). The assay is classed as functional.
In assay [5] the test system is Candida albicans. Nature of the assay: Inhibition of hypal growth in Candida albicans SC5314 assessed as length of germ tube at 200 uM measured immediately by differential interference contrast microscopic analysis (reference value: 70.3 +/- 12.3 micrometer). It counts as functional.
Assay [6] has as its system Candida albicans. Nature of the assay: Inhibition of hypal growth in Candida albicans SC5314 assessed as length of germ tube at 200 uM after 6 hrs by differential interference contrast microscopic analysis (reference value: 235.2 +/- 40.4 micrometer). It counts as functional.
The test system of assay [7] is Candida albicans. Nature of the assay: Antifungal activity against Candida albicans SC5314 assessed as inhibition of yeast growth at <15 uM after 24 hrs by CLSI broth microdilution method. The assay is classed as functional, organism-based.
Assay [8] deals with Candida albicans. Nature of the assay: Inhibition of germ tube formation in Candida albicans SC5314 assessed as reduction in yeast to hyphal conversion at 30 to 300 uM after 4 hrs by differential interference contrast microscopic analysis. It counts as functional, organism-based.
The subject of assay [9] is Candida albicans. Nature of the assay: Inhibition of germ tube formation in Candida albicans SC5314 assessed as reduction in yeast to hyphal conversion at >200 uM after 4 hrs by differential interference contrast microscopic analysis relative to control. It counts as functional.
Assay [10] concerns Candida albicans. Nature of the assay: Antifungal activity against Candida albicans SC5314 assessed as inhibition of yeast growth at 60 uM after 24 hrs by CLSI broth microdilution method relative to control. The assay is classed as functional. The settings on record: SC5314, 24 h.
In assay [11] the test system is Candida albicans. Nature of the assay: Antifungal activity against Candida albicans SC5314 assessed as inhibition of yeast growth at >30 uM after 24 hrs by CLSI broth microdilution method. It counts as functional, organism-based.

As for `CCCCCCCCc1ccc(C(=O)O)s1`, the Activity in assay [1] is above 95%.

The term inhibition denotes the percentage by which the read-out fell short of the control. On to `CCCCCCn1cc(C(=O)O)nn1`, for which the Activity in [2] was determined as 223.5 um; in assay [4], 142.8 um; in [5], 66.5 um; in [6], 207.8 um. Moreover, the inhibition entry in [3], in assay [7] and in assay [8] was “Active” throughout.

Take `O=C(O)c1cn(CCCCCCO)nn1`: the inhibition result in assay [7] and in assay [8] was “Active” in each case.

In the case of `CCCCCCCCn1cc(C(=O)O)nn1`, the “inhibition (INH)” value in [9] is on record as 95%. The Activity in [2] is reported as 74.2 um; in [4] it was 64.4 um; in assay [5], 73.4 um; in [6] it was 54.6 um. The inhibition result in assay [3], in [7] and in [11] was “Active” throughout. Also, in [10], the inhibition at 60 µM turned out to be 90%.

For `CCCCCCCCC/C=C\C(=O)O`, the Activity turned out to be 64.2 um in [2], 73.3 um in [4], 65.3 um in assay [5] and 63.5 um in [6]. Further, the inhibition entry in assay [7], in [11] and in [8] was “Active” in each case.

As to `CCCCCCCCCCn1cc(C(=O)O)nn1`, the “inhibition (INH)” value in assay [9] was found to be 95%. In addition, the Activity in assay [2] was 53.3 um; in assay [4], 59.1 um; in assay [5] it was 71.8 um; in assay [6], 45 um. The inhibition at 60 µM in assay [10] worked out at 90%. Besides, the inhibition entry in assay [7] and in [11] was “Active” in each case.

`CCCCCCCCOc1ccc(C(=O)O)cc1`: the Activity in assay [1] was above 95%.
